Experiments:
Assay type in all cases: in vivo
[1] = system: Abutilon theophrasti (ABUTH); experiment: Post-emergence herbicidal action, greenhouse pot test; conditions: rated visually after about 3 weeks vs untreated controls, 100% = plants have died
Method in brief: (§1)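 Activity was scored by eye about 3 weeks after treatment against untreated plants, where 100% means dead plants and 0% means no difference. Plants at the one-leaf stage received a foliar spray of WP or EC formulations in water plus 0.5% additive (600 l/ha, up to 20 g/ha). Plants were grown in sandy loam pots in a greenhouse for 2–3 weeks before spraying.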

[2] = system: Amaranthus retroflexus (AMARE); experiment: as above; conditions: rated visually after about 3 weeks vs untreated controls, 100% = plants have died
Method in brief: as §1

Avena fatua (AVEFA) = experiment: as above; conditions: rated visually after about 3 weeks vs untreated controls, 100% = plants have died
Method in brief: as §1

Lolium rigidum (LOLRI) = experiment: as above; conditions: dosage 20 g/ha
Method in brief: as §1

[3] = system: Pharbitis purpurea (PHBPU); experiment: as above
Method in brief: as §1

[4] = system: Polygonum convolvulus (POLCO); experiment: as above
Method in brief: as §1

Veronica persica (VERPE) = experiment: as above
Method in brief: as §1

Viola tricolor (VIOTR) = experiment: as above
Method in brief: as §1

[5] = system: Alopecurus myosuroides (ALOMY); experiment: Post-emergence herbicidal action, greenhouse pot test (also comparative test C); conditions: rated visually after about 3 weeks vs untreated controls, 100% = plants have died
Method in brief: (§2)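 Green parts of one-leaf-stage plants are sprayed at 600 l/ha with formulated compound plus 0.5% additive, then kept under optimum greenhouse conditions for about 3 weeks. Damage is scored visually, where 100% means dead plants and 0% means no difference from controls.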

[6] = system: Echinochloa crus-galli (ECHCG); experiment: as above
Method in brief: as §2

[7] = system: Matricaria inodora (MATIN); experiment: as above
Method in brief: as §2

Setaria viridis (SETVI) = experiment: as above
Method in brief: as §2

[8] = system: Triticum aestivum (TRZAS); experiment: Post-emergence crop plant compatibility, greenhouse pot test; conditions: vs untreated controls
Method in brief: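 Compatibility was scored as visual % effect against untreated controls about 3 weeks after spraying green plant parts at the one-leaf stage. Formulations (WP/EC) were applied in aqueous form with 0.5% additive, 600 l/ha, to greenhouse-grown pot plants.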

Oryza sativa (ORYSA) = experiment: Post-emergence crop plant compatibility, greenhouse pot test (also comparative test C); conditions: vs untreated controls
Method in brief: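 Visual damage versus untreated plants (0% = like control, 100% = plants died) was scored about 3 weeks after a post-emergence spray in greenhouse pots. Treatment: one-leaf stage, WP or EC in water at 600 l/ha with 0.5% additive; a/b/c mark different dosages on the same crop.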

## Cn1c(C(F)(F)F)cc(=O)n(-c2cc(Oc3ccccc3OCC(=O)OCCOC(F)(F)F)c(Cl)cc2F)c1=O [I.7-41]
[1]; 1.25 g/ha
  Post-emergence action at 1.25 g/ha against ABUTH in %: 100%
[1]; 5 g/ha
  Post-emergence action at 5 g/ha against ABUTH in %: 100%
[1]; 20 g/ha
  Post-emergence action at 20 g/ha against ABUTH in %: 100%
[2]; 1.25 g/ha
  Post-emergence action at 1.25 g/ha against AMARE in %: 100%
[2]; 5 g/ha
  Post-emergence action at 5 g/ha against AMARE in %: 100%
[2]; 20 g/ha
  Post-emergence action at 20 g/ha against AMARE in %: 100%
Avena fatua (AVEFA); 5 g/ha
  Post-emergence action at 5 g/ha against AVEFA in %: 80%
Avena fatua (AVEFA); 20 g/ha
  Post-emergence action at 20 g/ha against AVEFA in %: 80%
Lolium rigidum (LOLRI)
  Post-emergence action against LOLRI in %: 80%
[3]; dosage 1.25 g/ha
  Post-emergence action against PHBPU in %: 100%
[3]; dosage 5 g/ha
  Post-emergence action against PHBPU in %: 100%
[3]; dosage 20 g/ha
  Post-emergence action against PHBPU in %: 100%
[4]; dosage 5 g/ha
  Post-emergence action against POLCO in %: 100%
[4]; dosage 20 g/ha
  Post-emergence action against POLCO in %: 100%
Veronica persica (VERPE); 1.25 g/ha
  Post-emergence action against VERPE: 80%
Veronica persica (VERPE); 5 g/ha
  Post-emergence action against VERPE: 100%
Veronica persica (VERPE); 20 g/ha
  Post-emergence action against VERPE: 100%
Viola tricolor (VIOTR); 1.25 g/ha
  Post-emergence action against VIOTR: 100%
Viola tricolor (VIOTR); 5 g/ha
  Post-emergence action against VIOTR: 100%
Viola tricolor (VIOTR); 20 g/ha
  Post-emergence action against VIOTR: 100%
[5]; 1.25 g/ha
  Post-emergence action at 1.25 g/ha against ALOMY in %: 100%
[5]; 5 g/ha
  Post-emergence action at 5 g/ha against ALOMY in %: 100%
[5]; 20 g/ha
  Post-emergence action at 20 g/ha against ALOMY in %: 100%
[6]; 1.25 g/ha, rated visually after about 3 weeks vs untreated controls, 100% = plants have died
  Post-emergence action at 1.25 g/ha against ECHCG in %: 90%
[6]; dosage 5 g/ha
  Post-emergence action against ECHCG in %: 100%
[6]; dosage 20 g/ha
  Post-emergence action against ECHCG in %: 100%
[7]; dosage 1.25 g/ha
  Post-emergence action against MATIN in %: 90%
[7]; dosage 5 g/ha
  Post-emergence action against MATIN in %: 90%
[7]; dosage 20 g/ha
  Post-emergence action against MATIN in %: 100%
Setaria viridis (SETVI); 20 g/ha
  Post-emergence action against SETVI: 100%
Setaria viridis (SETVI); dosage 1.25 g/ha
  Post-emergence action against SETVI in %: 100%
Setaria viridis (SETVI); dosage 5 g/ha
  Post-emergence action against SETVI in %: 100%
[8]; 1.25 g/ha
  Post-emergence action against TRZAS (crop plant compatibility): 0%
[8]; 5 g/ha
  Post-emergence action against TRZAS (crop plant compatibility): 20%
Oryza sativa (ORYSA); 1.25 g/ha
  Post-emergence action against ORYSA (crop plant compatibility): 0%
Oryza sativa (ORYSA); 5 g/ha
  Post-emergence action against ORYSA (crop plant compatibility): 20%

## Cn1c(C(F)(F)F)cc(=O)n(-c2cc(Oc3ccccc3OCC(=O)OCC[N+](=O)[O-])c(Cl)cc2F)c1=O [I.7-183, 2-Nitroethyl (2-{2-chloro-4-fluoro-5-[3-methyl-2,6-dioxo-4-(trifluoromethyl)-3,6-dihydropyrimidin-1(2H)-yl]phenoxy}phenoxy)acetate]
[1]; Abutilon theophrasti, 504 h, 1.25 g/ha, read-out: Post-emergence action at 1.25 g/ha against ABUTH in %
  pest or weed control at 1.25 g/ha: 100%
[1]; Abutilon theophrasti, 504 h, 5 g/ha, read-out: Post-emergence action at 5 g/ha against ABUTH in %
  pest or weed control at 5 g/ha: 100%
[1]; Abutilon theophrasti, 504 h, 20 g/ha, read-out: Post-emergence action at 20 g/ha against ABUTH in %
  pest or weed control at 20 g/ha: 100%
[2]; Amaranthus retroflexus, 504 h, 1.25 g/ha, read-out: Post-emergence action at 1.25 g/ha against AMARE in %
  pest or weed control at 1.25 g/ha: 100%
[2]; Amaranthus retroflexus, 504 h, 5 g/ha, read-out: Post-emergence action at 5 g/ha against AMARE in %
  pest or weed control at 5 g/ha: 100%
[2]; Amaranthus retroflexus, 504 h, 20 g/ha, read-out: Post-emergence action at 20 g/ha against AMARE in %
  pest or weed control at 20 g/ha: 100%
Avena fatua (AVEFA); Avena fatua, 504 h, 20 g/ha, read-out: Post-emergence action at 20 g/ha against AVEFA in %
  pest or weed control at 20 g/ha: 90%
Lolium rigidum (LOLRI); Lolium rigidum, 504 h, read-out: Post-emergence action against LOLRI in %
  pest or weed control at 20 g/ha: 80%
[3]; Ipomoea purpurea, 504 h, dosage 1.25 g/ha, read-out: Post-emergence action against PHBPU in %
  pest or weed control at 1.25 g/ha: 80%
[3]; Ipomoea purpurea, 504 h, dosage 5 g/ha, read-out: Post-emergence action against PHBPU in %
  pest or weed control at 5 g/ha: 100%
[3]; Ipomoea purpurea, 504 h, dosage 20 g/ha, read-out: Post-emergence action against PHBPU in %
  pest or weed control at 20 g/ha: 100%
Veronica persica (VERPE); Veronica persica, 504 h, 5 g/ha, read-out: Post-emergence action against VERPE
  pest or weed control at 5 g/ha: 100%
Veronica persica (VERPE); Veronica persica, 504 h, 20 g/ha, read-out: Post-emergence action against VERPE
  pest or weed control at 20 g/ha: 100%
Viola tricolor (VIOTR); Viola tricolor, 504 h, 1.25 g/ha, read-out: Post-emergence action against VIOTR
  pest or weed control at 1.25 g/ha: 100%
Viola tricolor (VIOTR); Viola tricolor, 504 h, 5 g/ha, read-out: Post-emergence action against VIOTR
  pest or weed control at 5 g/ha: 100%
Viola tricolor (VIOTR); Viola tricolor, 504 h, 20 g/ha, read-out: Post-emergence action against VIOTR
  pest or weed control at 20 g/ha: 100%
[5]; Alopecurus myosuroides, 504 h, 5 g/ha, read-out: Post-emergence action at 5 g/ha against ALOMY in %
  pest or weed control at 5 g/ha: 80%
[5]; Alopecurus myosuroides, 504 h, 20 g/ha, read-out: Post-emergence action at 20 g/ha against ALOMY in %
  pest or weed control at 20 g/ha: 100%
[6]; Echinochloa crus-galli, 504 h, dosage 5 g/ha, read-out: Post-emergence action against ECHCG in %
  pest or weed control at 5 g/ha: 100%
[6]; Echinochloa crus-galli, 504 h, dosage 20 g/ha, read-out: Post-emergence action against ECHCG in %
  pest or weed control at 20 g/ha: 100%
[7]; Tripleurospermum inodorum, 504 h, dosage 1.25 g/ha, read-out: Post-emergence action against MATIN in %
  pest or weed control at 1.25 g/ha: 80%
[7]; Tripleurospermum inodorum, 504 h, dosage 5 g/ha, read-out: Post-emergence action against MATIN in %
  pest or weed control at 5 g/ha: 100%
[7]; Tripleurospermum inodorum, 504 h, dosage 20 g/ha, read-out: Post-emergence action against MATIN in %
  pest or weed control at 20 g/ha: 100%
Setaria viridis (SETVI); Setaria viridis, 504 h, 20 g/ha, read-out: Post-emergence action against SETVI
  pest or weed control at 20 g/ha: 100%
Setaria viridis (SETVI); Setaria viridis, 504 h, dosage 1.25 g/ha, read-out: Post-emergence action against SETVI in %
  pest or weed control at 1.25 g/ha: 100%
Setaria viridis (SETVI); Setaria viridis, 504 h, dosage 5 g/ha, read-out: Post-emergence action against SETVI in %
  pest or weed control at 5 g/ha: 100%
[8]; 1.25 g/ha
  Post-emergence action against TRZAS (crop plant compatibility): 20%
Oryza sativa (ORYSA); 1.25 g/ha
  Post-emergence action against ORYSA (crop plant compatibility): 0%

Source: patent US20240025862A1, “SUBSTITUTED N-PHENYLURACILS AND SALTS THEREOF, AND USE THEREOF AS HERBICIDAL ACTIVE SUBSTANCES” (Bayer Aktiengesellschaft, priority 2020, published 2024)
